# Laboratory results as given in patent US10899733B2, “Inhibitors of PARPs that catalyze mono-ADP-ribosylation” (OREGON HEALTH & SCIENCE UNIVERSITY, priority 2017, dated 2021).
# Where “and” joins values, the source holds several entries; their conditions need not be identical. Identical values can stand only once.
# Biological target: T1, PARP10cat (Homo sapiens, UniProt Q53GL7)
# T1 sequence (Q53GL7 806-1025 limits assumed): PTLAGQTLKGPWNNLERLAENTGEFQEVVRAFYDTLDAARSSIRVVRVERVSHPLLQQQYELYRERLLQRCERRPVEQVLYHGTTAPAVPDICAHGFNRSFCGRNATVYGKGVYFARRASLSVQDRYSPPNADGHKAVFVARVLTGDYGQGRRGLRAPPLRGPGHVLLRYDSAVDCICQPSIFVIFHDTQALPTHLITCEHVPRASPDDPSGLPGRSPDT
# Assay: Inhibition of PARP10cat-mediated ADP-ribosylation of SRPK2 using NAD+ (100 μM)
# Assay type: biochemical
# Details: not given
row,Compound,selectivity for PARP10 over PARP11
1,O=C1NCCc2cc(-c3cccc(C(F)(F)F)c3)ccc21 [Compound 12],8 fold
2,"Cc1c(-c2cncc(C(F)(F)F)c2)ccc2c1CCNC2=O [Compound 24, 5-methyl-6-(5-(trifluoromethyl)pyridin-3-yl)-3,4-dihydroisoquinolin-1(2H)-on]",34 fold and 35 fold
3,"Cc1c(-c2cnc3ccccc3c2)ccc2c1CCNC2=O [Compound 19, 5-methyl-6-(quinolin-3-yl)-3,4-dihydroisoquinolin-1(2H)-one]",8 fold
4,"Cc1c(-c2ccc3[nH]ccc3c2)ccc2c1CCNC2=O [Compound 17, 6-(1H-indol-5-yl)-5-methyl-3,4-dihydroisoquinolin-1(2H)-one]",4 fold
5,"Cc1c(-c2ccnc(F)c2)ccc2c1CCNC2=O [Compound 20, 6-(2-fluoropyridin-4-yl)-5-methyl-3,4-dihydroisoquinolin-1(2H)-one]",24 fold
6,"Cc1c(-c2cncc(F)c2)ccc2c1CCNC2=O [Compound 23, 6-(5-fluoropyridin-3-yl)-5-methyl-3,4-dihydroisoquinolin-1(2H)-one]",25 fold
7,O=C1NCCc2cc(-c3ccccc3)ccc21 [Compound 8],4 fold
8,"Cc1c(-c2cnc3[nH]ccc3c2)ccc2c1CCNC2=O [Compound 18, 5-methyl-6-(1H-pyrrolo[2,3-b]pyridin-5-yl)-3,4-dihydroisoquinolin-1(2H)-one]",17 fold
9,"Cc1c(-c2ccnc(Cl)c2)ccc2c1CCNC2=O [Compound 21, 6-(2-chloropyridin-4-yl)-5-methyl-3,4-dihydroisoquinolin-1(2H)-one]",retained similar selectivity
10,"Cc1c(-c2cccnc2)ccc2c1CCNC2=O [Compound 15, 5-methyl-6-(pyridiny-3-yl)-3,4-dihydroisoquinolin-1(2H)-one]",12 fold
11,"Cc1c(-c2ccncc2)ccc2c1CCNC2=O [Compound 16, 5-methyl-6-(pyridiny-4-yl)-3,4-dihydroisoquinolin-1(2H)-one]",15 fold
12,"Cc1c(-c2ccccc2)ccc2c1CCNC2=O [Compound 14, 5-methyl-6-phenyl-3,4-dihydroisoquinolin-1(2H)-one]",17 fold
13,"Cc1cccc2c1CCNC2=O [Compound 3, 5-methyl-dq]",0.24 fold

# Same assay, conditions: 8 and 3 compared to unsubstituted 1; 14 compared to 3
row,Compound,increase in potency for PARP10 compared to comparator compound [fold]
1,O=C1NCCc2cc(-c3ccccc3)ccc21 [Compound 8],28
2,"Cc1c(-c2ccccc2)ccc2c1CCNC2=O [Compound 14, 5-methyl-6-phenyl-3,4-dihydroisoquinolin-1(2H)-one]",5
3,"Cc1cccc2c1CCNC2=O [Compound 3, 5-methyl-dq]",8

# Same assay, conditions: 12 vs 8; 14 vs 3; 20, 22 vs 16; 23, 24 vs 15
row,Compound,improvement in selectivity for PARP10 over PARP11 compared to parent compound [fold]
1,O=C1NCCc2cc(-c3cccc(C(F)(F)F)c3)ccc21 [Compound 12],2
2,"Cc1c(-c2ccnc(F)c2)ccc2c1CCNC2=O [Compound 20, 6-(2-fluoropyridin-4-yl)-5-methyl-3,4-dihydroisoquinolin-1(2H)-one]",~2
3,"Cc1c(-c2ccccc2)ccc2c1CCNC2=O [Compound 14, 5-methyl-6-phenyl-3,4-dihydroisoquinolin-1(2H)-one]",70

# Same assay, conditions: ADP-ribosylation of SRPK2, NAD+ 100 μM
Compound,IC50 [µM],PARP10cat pIC50 ± S.E.M.
O=C1NCCc2cc(-c3cccc(C(F)(F)F)c3)ccc21 [Compound 12],2.3,5.65 ± 0.03
"Cc1c(-c2cncc(C(F)(F)F)c2)ccc2c1CCNC2=O [Compound 24, 5-methyl-6-(5-(trifluoromethyl)pyridin-3-yl)-3,4-dihydroisoquinolin-1(2H)-on]",,5.57 ± 0.03
O=C1NCCc2cc(Br)ccc21 [Compound 5],17.1,4.77 ± 0.03
"Cc1c(-c2cnc3ccccc3c2)ccc2c1CCNC2=O [Compound 19, 5-methyl-6-(quinolin-3-yl)-3,4-dihydroisoquinolin-1(2H)-one]",1.8,5.75 ± 0.02
"Cc1c(-c2ccc3[nH]ccc3c2)ccc2c1CCNC2=O [Compound 17, 6-(1H-indol-5-yl)-5-methyl-3,4-dihydroisoquinolin-1(2H)-one]",1.1,5.96 ± 0.03
"Cc1c(-c2ccnc(F)c2)ccc2c1CCNC2=O [Compound 20, 6-(2-fluoropyridin-4-yl)-5-methyl-3,4-dihydroisoquinolin-1(2H)-one]",1.9,5.71 ± 0.03
O=C1NCCc2c(Br)cccc21 [Compound 2],10.1,4.99 ± 0.04
Cc1ccc2c(c1)CCNC2=O [Compound 6],33.1,4.48 ± 0.04
O=C1NCCc2c1cccc2-c1ccccc1 [Compound 4],35,4.46 ± 0.04
O=C1NCCc2cc(-c3cccc(Cl)c3)ccc21 [Compound 10],1.1,5.95 ± 0.02
"Cc1c(-c2cncc(F)c2)ccc2c1CCNC2=O [Compound 23, 6-(5-fluoropyridin-3-yl)-5-methyl-3,4-dihydroisoquinolin-1(2H)-one]",2.2,5.66 ± 0.02
O=C1NCCc2cc(-c3cccc(F)c3)ccc21 [Compound 9],1.4,5.85 ± 0.03
O=C1NCCc2cc(-c3ccccc3)ccc21 [Compound 8],2.5,5.61 ± 0.03
"Cc1c(-c2cnc3[nH]ccc3c2)ccc2c1CCNC2=O [Compound 18, 5-methyl-6-(1H-pyrrolo[2,3-b]pyridin-5-yl)-3,4-dihydroisoquinolin-1(2H)-one]",0.71,6.15 ± 0.03
"Cc1c(-c2ccnc(Cl)c2)ccc2c1CCNC2=O [Compound 21, 6-(2-chloropyridin-4-yl)-5-methyl-3,4-dihydroisoquinolin-1(2H)-one]",1.8,5.76 ± 0.03
"Cc1c(-c2cccnc2)ccc2c1CCNC2=O [Compound 15, 5-methyl-6-(pyridiny-3-yl)-3,4-dihydroisoquinolin-1(2H)-one]",2.5,5.60 ± 0.04
"Cc1c(-c2ccncc2)ccc2c1CCNC2=O [Compound 16, 5-methyl-6-(pyridiny-4-yl)-3,4-dihydroisoquinolin-1(2H)-one]",1.4,5.84 ± 0.03
Cc1cccc(-c2ccc3c(c2)CCNC3=O)c1 [Compound 11],2.1,5.67 ± 0.02
"Cc1c(-c2ccccc2)ccc2c1CCNC2=O [Compound 14, 5-methyl-6-phenyl-3,4-dihydroisoquinolin-1(2H)-one]",,5.80 ± 0.03
"Cc1cccc2c1CCNC2=O [Compound 3, 5-methyl-dq]",8.6,5.01 ± 0.03

# Same assay, conditions: ratio of IC50 values, PARP11 over PARP10cat
row,Compound,PARP11/PARP10
1,O=C1NCCc2cc(-c3cccc(C(F)(F)F)c3)ccc21 [Compound 12],7.6
2,"Cc1c(-c2cncc(C(F)(F)F)c2)ccc2c1CCNC2=O [Compound 24, 5-methyl-6-(5-(trifluoromethyl)pyridin-3-yl)-3,4-dihydroisoquinolin-1(2H)-on]",34
3,O=C1NCCc2cc(Br)ccc21 [Compound 5],0.79
4,"Cc1c(-c2cnc3ccccc3c2)ccc2c1CCNC2=O [Compound 19, 5-methyl-6-(quinolin-3-yl)-3,4-dihydroisoquinolin-1(2H)-one]",7.8
5,"Cc1c(-c2ccc3[nH]ccc3c2)ccc2c1CCNC2=O [Compound 17, 6-(1H-indol-5-yl)-5-methyl-3,4-dihydroisoquinolin-1(2H)-one]",3.8
6,"Cc1c(-c2ccnc(F)c2)ccc2c1CCNC2=O [Compound 20, 6-(2-fluoropyridin-4-yl)-5-methyl-3,4-dihydroisoquinolin-1(2H)-one]",24
7,O=C1NCCc2c(Br)cccc21 [Compound 2],0.29
8,Cc1ccc2c(c1)CCNC2=O [Compound 6],1.0
9,O=C1NCCc2c1cccc2-c1ccccc1 [Compound 4],0.03
10,O=C1NCCc2cc(-c3cccc(Cl)c3)ccc21 [Compound 10],5.3
11,"Cc1c(-c2cncc(F)c2)ccc2c1CCNC2=O [Compound 23, 6-(5-fluoropyridin-3-yl)-5-methyl-3,4-dihydroisoquinolin-1(2H)-one]",25
12,O=C1NCCc2cc(-c3cccc(F)c3)ccc21 [Compound 9],4.4
13,O=C1NCCc2cc(-c3ccccc3)ccc21 [Compound 8],3.5
14,"Cc1c(-c2cnc3[nH]ccc3c2)ccc2c1CCNC2=O [Compound 18, 5-methyl-6-(1H-pyrrolo[2,3-b]pyridin-5-yl)-3,4-dihydroisoquinolin-1(2H)-one]",17
15,"Cc1c(-c2ccnc(Cl)c2)ccc2c1CCNC2=O [Compound 21, 6-(2-chloropyridin-4-yl)-5-methyl-3,4-dihydroisoquinolin-1(2H)-one]",15
16,"Cc1c(-c2cccnc2)ccc2c1CCNC2=O [Compound 15, 5-methyl-6-(pyridiny-3-yl)-3,4-dihydroisoquinolin-1(2H)-one]",12
17,O=C1NCCc2cc(Cc3ccccc3)ccc21 [Compound 7],<0.33
18,"Cc1c(-c2ccncc2)ccc2c1CCNC2=O [Compound 16, 5-methyl-6-(pyridiny-4-yl)-3,4-dihydroisoquinolin-1(2H)-one]",15
19,Cc1cccc(-c2ccc3c(c2)CCNC3=O)c1 [Compound 11],2.2
20,"Cc1c(-c2ccccc2)ccc2c1CCNC2=O [Compound 14, 5-methyl-6-phenyl-3,4-dihydroisoquinolin-1(2H)-one]",17
21,"Cc1cccc2c1CCNC2=O [Compound 3, 5-methyl-dq]",0.24

# Biological target: T2, PARP11 (Homo sapiens, UniProt Q9NR21)
# T2 sequence (Q9NR21 1-338): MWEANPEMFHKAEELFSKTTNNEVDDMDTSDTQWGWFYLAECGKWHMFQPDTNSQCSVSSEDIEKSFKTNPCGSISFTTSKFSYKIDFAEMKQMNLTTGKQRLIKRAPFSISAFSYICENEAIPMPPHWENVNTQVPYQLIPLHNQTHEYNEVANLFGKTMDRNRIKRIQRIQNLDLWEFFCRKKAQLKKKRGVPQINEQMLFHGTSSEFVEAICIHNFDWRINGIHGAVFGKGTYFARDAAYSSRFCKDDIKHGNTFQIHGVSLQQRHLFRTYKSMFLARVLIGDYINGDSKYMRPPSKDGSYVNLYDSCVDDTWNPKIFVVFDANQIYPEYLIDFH
# Assay: Inhibition of PARP11-mediated ADP-ribosylation of SRPK2 using NAD+ (100 μM)
# Assay type: biochemical
# Details: not given
Compound,decrease in potency for PARP11 compared to compound 8 [fold],selectivity for PARP11 over PARP10 [fold]
O=C1NCCc2cc(-c3cccc(C(F)(F)F)c3)ccc21 [Compound 12],2,
O=C1NCCc2c1cccc2-c1ccccc1 [Compound 4],,30

# Same assay, conditions: ADP-ribosylation of SRPK2, NAD+ 100 μM
Compound,IC50 [µM],PARP11 pIC50 ± S.E.M.
O=C1NCCc2cc(-c3cccc(C(F)(F)F)c3)ccc21 [Compound 12],17.4,4.76 ± 0.04
"Cc1c(-c2cncc(C(F)(F)F)c2)ccc2c1CCNC2=O [Compound 24, 5-methyl-6-(5-(trifluoromethyl)pyridin-3-yl)-3,4-dihydroisoquinolin-1(2H)-on]",92.1,4.04 ± 0.03
O=C1NCCc2cc(Br)ccc21 [Compound 5],13.5,4.87 ± 0.03
"Cc1c(-c2cnc3ccccc3c2)ccc2c1CCNC2=O [Compound 19, 5-methyl-6-(quinolin-3-yl)-3,4-dihydroisoquinolin-1(2H)-one]",14,4.86 ± 0.04
"Cc1c(-c2ccc3[nH]ccc3c2)ccc2c1CCNC2=O [Compound 17, 6-(1H-indol-5-yl)-5-methyl-3,4-dihydroisoquinolin-1(2H)-one]",4.2,5.38 ± 0.04
"Cc1c(-c2ccnc(F)c2)ccc2c1CCNC2=O [Compound 20, 6-(2-fluoropyridin-4-yl)-5-methyl-3,4-dihydroisoquinolin-1(2H)-one]",44.7,4.35 ± 0.05
O=C1NCCc2c(Br)cccc21 [Compound 2],2.9,5.54 ± 0.04
Cc1ccc2c(c1)CCNC2=O [Compound 6],34.1,4.47 ± 0.06
O=C1NCCc2c1cccc2-c1ccccc1 [Compound 4],1.2,5.93 ± 0.04
O=C1NCCc2cc(-c3cccc(Cl)c3)ccc21 [Compound 10],5.8,5.24 ± 0.03
"Cc1c(-c2cncc(F)c2)ccc2c1CCNC2=O [Compound 23, 6-(5-fluoropyridin-3-yl)-5-methyl-3,4-dihydroisoquinolin-1(2H)-one]",54.7,4.23 ± 0.03
O=C1NCCc2cc(-c3cccc(F)c3)ccc21 [Compound 9],6.1,5.22 ± 0.04
O=C1NCCc2cc(-c3ccccc3)ccc21 [Compound 8],8.7,5.06 ± 0.03
"NC(=O)c1ccc(Oc2ccc(C(N)=O)cc2)cc1 [OUL35, 4,4′-oxydibenzamide, reference compound]",2.1,5.68 ± 0.03
"Cc1c(-c2cnc3[nH]ccc3c2)ccc2c1CCNC2=O [Compound 18, 5-methyl-6-(1H-pyrrolo[2,3-b]pyridin-5-yl)-3,4-dihydroisoquinolin-1(2H)-one]",12,4.92 ± 0.05
"Cc1c(-c2ccnc(Cl)c2)ccc2c1CCNC2=O [Compound 21, 6-(2-chloropyridin-4-yl)-5-methyl-3,4-dihydroisoquinolin-1(2H)-one]",27,4.57 ± 0.02
"Cc1c(-c2cccnc2)ccc2c1CCNC2=O [Compound 15, 5-methyl-6-(pyridiny-3-yl)-3,4-dihydroisoquinolin-1(2H)-one]",30.4,4.52 ± 0.06
O=C1NCCc2cc(Cc3ccccc3)ccc21 [Compound 7],16.7,4.78 ± 0.03
"Cc1c(-c2ccncc2)ccc2c1CCNC2=O [Compound 16, 5-methyl-6-(pyridiny-4-yl)-3,4-dihydroisoquinolin-1(2H)-one]",21.2,4.67 ± 0.04
Cc1cccc(-c2ccc3c(c2)CCNC3=O)c1 [Compound 11],4.6,5.34 ± 0.03
"Cc1c(-c2ccccc2)ccc2c1CCNC2=O [Compound 14, 5-methyl-6-phenyl-3,4-dihydroisoquinolin-1(2H)-one]",26.4,4.58 ± 0.07
"Cc1cccc2c1CCNC2=O [Compound 3, 5-methyl-dq]",2.1,5.67 ± 0.05

# Test system: not listed separately
# Assay: Aqueous solubility observed when assaying
# Assay type: physicochemical
# Details: observed in assays
row,Compound,aqueous solubility
1,"Cc1c(-c2cccnc2)ccc2c1CCNC2=O [Compound 15, 5-methyl-6-(pyridiny-3-yl)-3,4-dihydroisoquinolin-1(2H)-one]",increased solubility compared to 14
2,"Cc1c(-c2ccncc2)ccc2c1CCNC2=O [Compound 16, 5-methyl-6-(pyridiny-4-yl)-3,4-dihydroisoquinolin-1(2H)-one]",increased solubility compared to 14
3,"Cc1c(-c2ccccc2)ccc2c1CCNC2=O [Compound 14, 5-methyl-6-phenyl-3,4-dihydroisoquinolin-1(2H)-one]",aqueous solubility issues at higher concentrations
